Measurements taken from publication PMC4303209, “A novel phosphatidylinositol 3-kinase (PI3K) inhibitor directs a potent FOXO-dependent, p53-independent cell cycle arrest phenotype characterized by the differential induction of a subset of FOXO-regulated genes” (Breast Cancer Research : BCR, 2014).

Test system: MCF-7 breast cancer cells
Assay: Microarray gene expression analysis (Agilent whole human genome 4 x 44K; compound vs DMSO, LIMMA log2 fold change)
Assay type: cell-based
Conditions: cell cycle genes

For `Cn1ncc2c(N3CCOCC3)nc(-c3cccc(O)c3)nc21` [ETP-45658], the “STAT5A log2FC” value (Gene 6776) was 0.569, the “STAT5B log2FC” value (Gene 6777) was 0.093 and the “AURKA log2FC” value (Gene 6790) was 0.163. The “STK10 log2FC” value (Gene 6793) was -0.333, the “AURKC log2FC” value (Gene 6795) was 0.077 and the “SUV39H1 log2FC” value (Gene 6839) was -0.686. The “TACC1 log2FC” value (Gene 6867) was 0.112, the “ADAM17 log2FC” value (Gene 6868) was 0.578 and the “TAF1 log2FC” value (Gene 6872) was 0.237. The “TAL1 log2FC” value (Gene 6886) was -0.533, the “TBX3 log2FC” value (Gene 6926) was -0.702 and the “TCF3 log2FC” value (Gene 6929) was -0.071. For the same molecule, the “DYNLT3 log2FC” value (Gene 6990) was -0.257, the “DYNLT1 log2FC” value (Gene 6993) was 0.039 and the “TERF1 log2FC” value (Gene 7013) was 0.607. The “TERF2 log2FC” value (Gene 7014) was -0.131, the “TFAP4 log2FC” value (Gene 7023) was 0.268 and the “NR2F2 log2FC” value (Gene 7026) was 0.124. For the same molecule, the “TFDP1 log2FC” value (Gene 7027) was -0.484, the “TFDP2 log2FC” value (Gene 7029) was 0.532 and the “TGFB1 log2FC” value (Gene 7040) was -0.640. For the same molecule, the “THBS1 log2FC” value (Gene 7057) was -0.941, the “TNF log2FC” value (Gene 7124) was -1.647 and the “TNFAIP3 log2FC” value (Gene 7128) was -0.659. The “TOP2A log2FC” value (Gene 7153) was 0.987, the “TOP2B log2FC” value (Gene 7155) was 1.103 and the “TOP3A log2FC” value (Gene 7156) was -0.181. The “TP53 log2FC” value (Gene 7157) was -0.193, the “TP53BP2 log2FC” value (Gene 7159) was 0.300 and the “TPR log2FC” value (Gene 7175) was 0.896. For the same molecule, the “TSC1 log2FC” value (Gene 7248) was 0.395, the “TSC2 log2FC” value (Gene 7249) was -0.413 and the “TSG101 log2FC” value (Gene 7251) was 0.390. The “TTK log2FC” value (Gene 7272) was 1.754, the “TUBG1 log2FC” value (Gene 7283) was -0.283 and the “UBA52 log2FC” value (Gene 7311) was 0.322. The “UBB log2FC” value (Gene 7314) was 0.069, the “UBC log2FC” value (Gene 7316) was 0.294 and the “UBE2B log2FC” value (Gene 7320) was 0.582. The “UBE2D1 log2FC” value (Gene 7321) was 0.498, the “UBE2E1 log2FC” value (Gene 7324) was 0.262 and the “UBE2I log2FC” value (Gene 7329) was -0.395. The “WEE1 log2FC” value (Gene 7465) was -0.074, the “WNT5A log2FC” value (Gene 7474) was 0.075 and the “WNT10B log2FC” value (Gene 7480) was -0.451. For the same molecule, the “WNT9A log2FC” value (Gene 7483) was 0.073, the “XPC log2FC” value (Gene 7508) was 0.604 and the “XRCC2 log2FC” value (Gene 7516) was -0.596. For the same molecule, the “YWHAG log2FC” value (Gene 7532) was -0.492, the “ZNF16 log2FC” value (Gene 7564) was 0.343 and the “ZBTB17 log2FC” value (Gene 7709) was 0.065. The “PTP4A1 log2FC” value (Gene 7803) was -0.345, the “EVI5 log2FC” value (Gene 7813) was 0.609 and the “ALMS1 log2FC” value (Gene 7840) was 0.617. The “NR4A3 log2FC” value (Gene 8013) was 0.735, the “NUP214 log2FC” value (Gene 8021) was -0.742 and the “FOSL1 log2FC” value (Gene 8061) was -2.502. For the same molecule, the “CUL5 log2FC” value (Gene 8065) was -0.432, the “YEATS4 log2FC” value (Gene 8089) was 1.304 and the “HMGA2 log2FC” value (Gene 8091) was -1.656. For the same molecule, the “CHAF1B log2FC” value (Gene 8208) was 0.083, the “CLTCL1 log2FC” value (Gene 8218) was -0.209 and the “USP9X log2FC” value (Gene 8239) was 0.632. The “SMC1A log2FC” value (Gene 8243) was 0.142, the “CDC7 log2FC” value (Gene 8317) was 0.500 and the “RAD54L log2FC” value (Gene 8438) was -0.289. For the same molecule, the “CUL4B log2FC” value (Gene 8450) was 0.695, the “CUL4A log2FC” value (Gene 8451) was 0.552 and the “CUL1 log2FC” value (Gene 8454) was 0.479. The “KLF11 log2FC” value (Gene 8462) was 1.337, the “OFD1 log2FC” value (Gene 8481) was 1.019 and the “PKP4 log2FC” value (Gene 8502) was 0.170. For the same molecule, the “GAS7 log2FC” value (Gene 8522) was -0.364, the “DGKZ log2FC” value (Gene 8525) was -0.549 and the “CAMK1 log2FC” value (Gene 8536) was -0.088. For the same molecule, the “CDC14B log2FC” value (Gene 8555) was 0.259, the “CDK10 log2FC” value (Gene 8558) was 0.167 and the “MADD log2FC” value (Gene 8567) was 0.423. The “DYNLL1 log2FC” value (Gene 8655) was -0.944, the “TNKS log2FC” value (Gene 8658) was 0.686 and the “BECN1 log2FC” value (Gene 8678) was 0.486. For the same molecule, the “CDC23 log2FC” value (Gene 8697) was 0.451, the “CRADD log2FC” value (Gene 8738) was -0.101 and the “CCNK log2FC” value (Gene 8812) was -0.603. For the same molecule, the “BANF1 log2FC” value (Gene 8815) was -0.450, the “CDK5R1 log2FC” value (Gene 8851) was -0.154 and the “IER3 log2FC” value (Gene 8870) was -1.789. For the same molecule, the “SPHK1 log2FC” value (Gene 8877) was -0.334, the “CDC16 log2FC” value (Gene 8881) was 0.890 and the “CCNA1 log2FC” value (Gene 8900) was 0.079. For the same molecule, the “TIMELESS log2FC” value (Gene 8914) was 0.236, the “PHOX2B log2FC” value (Gene 8929) was -0.044 and the “MBD4 log2FC” value (Gene 8930) was 0.489. The “BTRC log2FC” value (Gene 8945) was 0.108, the “WASL log2FC” value (Gene 8976) was 0.239 and the “RNF8 log2FC” value (Gene 9025) was -0.050. The “PRC1 log2FC” value (Gene 9055) was 0.420, the “USP2 log2FC” value (Gene 9099) was -0.057 and the “USP8 log2FC” value (Gene 9101) was 0.690. The “SMC3 log2FC” value (Gene 9126) was 1.332, the “EXO1 log2FC” value (Gene 9156) was 0.057 and the “ARHGEF2 log2FC” value (Gene 9181) was -0.734. For the same molecule, the “ZW10 log2FC” value (Gene 9183) was 0.473, the “BUB3 log2FC” value (Gene 9184) was 0.588 and the “NOLC1 log2FC” value (Gene 9221) was -0.505. For the same molecule, the “CCPG1 log2FC” value (Gene 9236) was 0.930, the “MAPKAPK2 log2FC” value (Gene 9261) was -0.374 and the “PIWIL1 log2FC” value (Gene 9271) was 0.057. For the same molecule, the “RECQL5 log2FC” value (Gene 9400) was 0.154, the “ROCK2 log2FC” value (Gene 9475) was 0.291 and the “PSMF1 log2FC” value (Gene 9491) was -0.383. For the same molecule, the “VPS4B log2FC” value (Gene 9525) was 0.614, the “CLOCK log2FC” value (Gene 9575) was 0.069 and the “MAD2L1BP log2FC” value (Gene 9587) was -0.350. For the same molecule, the “ARHGEF10 log2FC” value (Gene 9639) was 0.265, the “MDC1 log2FC” value (Gene 9656) was -0.639 and the “CEP135 log2FC” value (Gene 9662) was 0.532. For the same molecule, the “KIAA0430 log2FC” value (Gene 9665) was 0.757, the “CROCC log2FC” value (Gene 9696) was -0.051 and the “ESPL1 log2FC” value (Gene 9700) was 0.453. The “CEP57 log2FC” value (Gene 9702) was 1.199, the “UTP14C log2FC” value (Gene 9724) was 0.374 and the “KNTC1 log2FC” value (Gene 9735) was 0.636. For the same molecule, the “RASSF2 log2FC” value (Gene 9770) was 0.675, the “CKAP5 log2FC” value (Gene 9793) was 0.439 and the “SFI1 log2FC” value (Gene 9814) was -0.103. For the same molecule, the “RB1CC1 log2FC” value (Gene 9821) was 1.457, the “MELK log2FC” value (Gene 9833) was 0.433 and the “GINS1 log2FC” value (Gene 9837) was -0.673. The “MAGI2 log2FC” value (Gene 9863) was 0.425, the “TLK1 log2FC” value (Gene 9874) was 0.392 and the “POM121 log2FC” value (Gene 9883) was -0.667. For the same molecule, the “KLHL21 log2FC” value (Gene 9903) was 0.769, the “DCLRE1A log2FC” value (Gene 9937) was 0.710 and the “USP3 log2FC” value (Gene 9960) was 0.530. The “THOC1 log2FC” value (Gene 9984) was 0.606, the “DMTF1 log2FC” value (Gene 9988) was 0.604 and the “CASP8AP2 log2FC” value (Gene 9994) was 0.813. The “PDCD6IP log2FC” value (Gene 10015) was 0.516, the “BCL2L11 log2FC” value (Gene 10018) was 0.145 and the “CHAF1A log2FC” value (Gene 10036) was -0.375. The “PARP3 log2FC” value (Gene 10039) was 0.325, the “TOM1L1 log2FC” value (Gene 10040) was 0.759 and the “SMC4 log2FC” value (Gene 10051) was 0.902. For the same molecule, the “ACTR2 log2FC” value (Gene 10097) was -0.298, the “RAD50 log2FC” value (Gene 10111) was 0.524 and the “KIF20A log2FC” value (Gene 10112) was 0.476. For the same molecule, the “OPTN log2FC” value (Gene 10133) was 0.838, the “AKAP9 log2FC” value (Gene 10142) was 1.382 and the “PSME3 log2FC” value (Gene 10197) was -1.314. For the same molecule, the “MPHOSPH9 log2FC” value (Gene 10198) was 0.470, the “MPHOSPH6 log2FC” value (Gene 10200) was -0.666 and the “MAEA log2FC” value (Gene 10296) was -0.219. For the same molecule, the “PAK4 log2FC” value (Gene 10298) was -0.601, the “NPM2 log2FC” value (Gene 10361) was -0.152 and the “HMG20B log2FC” value (Gene 10362) was 0.276. The “CITED2 log2FC” value (Gene 10370) was 2.261.
